This note sets out measurements from patent publication US10111866B2, “Compounds as rearranged during transfection (RET) inhibitors” (GLAXOSMITHKLINE INTELLECTUAL PROPERTY DEVELOPMENT LIMITED, priority 2015, dated 2018).

Experiment [1] addresses Human RET kinase (Homo sapiens (Human), UniProt P07949). Briefly: RET kinase enzymatic assay. The experiment is classed as biochemical. The settings on record: GST-RET cytoplasmic domain, HTRF readout. The procedure:
RET Kinase Enzymatic Assay
Human RET kinase cytoplasmic domain (amino acids 658-1114 of accession number NP_000314.1) was expressed as an N-terminal GST-fusion protein using a baculovirus expression system. GST-RET was purified using glutathione sepharose chromatography. The RET kinase enzymatic assay was performed in a total volume of 10 uL with increasing concentrations of RET kinase inhibitor as a singlet in a 384 well format as follows: RET inhibitor compound plates are prepared by adding 100 nL of RET inhibitor at different concentrations to a 384-well plate. 5 μL/well of a 2× enzyme mix (50 mM HEPES (4-(2-hydroxyethyl)-1-piperazineethanesulfonic acid); 1 mM CHAPS (3-[(3-cholamidopropyl)dimethylammonio]-1-propane sulfonate); 0.1 mg/mL BSA (bovine serum albumin); 1 mM DTT (dithiothreitol); 0.2 nM RET kinase) was added to the 384-well plate and incubated for 30 minutes at 23° C. […] 10 μL/well of 2× stop/detection mix (50 mM HEPES; 0.1% BSA; 800 mM Potassium Fluoride; 50 mM EDTA (Ethylenediaminetetraacetic acid); 200× dilution of Europium Cryptate labeled anti-phosphotyrosine antibody; 62.5 nM Streptavidin-XL665) incubated for 1 hour at 23° C. and read on a Homogenous Time-Resolved Fluorescence reader. […]
For orientation: Time-resolved FRET reads energy transfer from a long-lived donor to a nearby acceptor.

The test system of experiment [2] is TT cells. As to the kind of experiment: RET kinase cell-based proliferation assay (TT cells, CellTiter-Glo). The settings on record: Homo sapiens, 192 h, eight days. As for the experimental part: RET Kinase Cell-Based Proliferation Assay
The potency of the compounds of the invention were tested for its ability to inhibit cell proliferation and cell viability. TT cells (ATCC CRL-1803), a medullary thyroid cancer cell line with constitutively activated RET kinase, were maintained in 150 cm^2 dishes in F12 Kaighn's medium, 10% fetal bovine serum, 1× Glutamax, 1× non-essential amino acids, 1× Pen/Strep antibiotics at 37° C. in 5% carbon dioxide. 6.0E3 TT cells/well in 50 μL of media were added to a 96-well cell culture plate and allowed to adhere overnight. 50 μL of serially diluted RET inhibitor compounds were added to 96-well plate containing cultured TT cells and incubated at 37° C. in 5% carbon dioxide for eight days. 50 μL of CellTiter-Glo (Promega #G-7573) was added, contents mixed for 1 minute on shaker followed by 10 minutes in the dark at 23° C. and the luminescence read by EnVision (PerkinElmer). IC50s were fitted using GraphPad Prism to a sigmoidal dose response.
For orientation: ATP-based viability assays read luminescence as a measure of living cells.

Broadly, the pIC50 is −log10 of the IC50, conventionally taken in molar units. A low value points to a large IC50.

pIC50: −log10 of the molar value.

Sequence of Human RET kinase (P07949 658-1114): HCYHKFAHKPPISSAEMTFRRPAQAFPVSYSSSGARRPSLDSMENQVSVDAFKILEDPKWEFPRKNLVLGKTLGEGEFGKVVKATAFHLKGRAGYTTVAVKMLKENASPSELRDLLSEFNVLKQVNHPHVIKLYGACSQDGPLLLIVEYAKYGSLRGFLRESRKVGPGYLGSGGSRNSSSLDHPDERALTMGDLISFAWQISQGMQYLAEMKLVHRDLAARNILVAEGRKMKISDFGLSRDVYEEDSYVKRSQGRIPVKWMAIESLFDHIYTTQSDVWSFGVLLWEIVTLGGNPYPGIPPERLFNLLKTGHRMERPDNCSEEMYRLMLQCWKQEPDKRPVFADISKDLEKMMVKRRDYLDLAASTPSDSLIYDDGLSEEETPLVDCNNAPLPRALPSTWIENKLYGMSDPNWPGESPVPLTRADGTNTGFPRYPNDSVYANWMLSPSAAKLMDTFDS

Regarding `CCOc1cc(=O)[nH]cc1-c1ccc(CC(=O)Nc2cc(C(=O)NCCN(C)C)cc(C(F)(F)F)c2)c(F)c1` [Example 1, N-(2-(dimethylamino)ethyl)-3-(2-(4-(4-ethoxy-6-oxo-1,6-dihydropyridin-3-yl)-2-fluorophenyl)acetamido)-5-(trifluoromethyl)benzamide], the pIC50 in experiment [1] was at least 8.00; in experiment [2] it was 7.00 to 8.00.
With `CCOc1cc(=O)[nH]cc1-c1ccc(CC(=O)Nc2cc(OCCN(C)C)cc(C(F)(F)F)c2)c(F)c1` [Example 2, N-(3-(2-(dimethylamino)ethoxy)-5-(trifluoromethyl)phenyl)-2-(4-(4-ethoxy-6-oxo-1,6-dihydropyridin-3-yl)-2-fluorophenyl)acetamide], the pIC50 in experiment [1] is at least 8.00; in experiment [2] it was 7.00 to 8.00.
